Our source for the IC50 and inhibition values is patent US10882837B2, “Amide compounds and use thereof” (ALPHALA CO., LTD., priority 2017, dated 2021).

Molecules are shown by their SMILES.

One experiment has as its target T1, glucagon receptor (GCGR) (Homo sapiens, UniProt P47871).
T1 construct: expressed in transfected cells; host or cells: CHO-K1
The experiment is described as follows: Glucagon cAMP inhibition assay (Cisbio cAMP Dynamic 2 HTRF). Type of experiment: cell-based. Particulars: GCGR overexpressed CHO-K1 cells or human primary hepatocytes (not specified); glucagon at EC50. Here is the method:
Glucagon eAMP Inhibition Assay
Downstream secondary messenger eAMP induced by glucagon was detected by Cisbio cAMP Dynamic 2 kit. Testing compounds were each prepared as a dimethyl sulfoxide (DMSO) solution at the concentration of 10 mM. To evaluate the potency of compounds in inhibiting the cAMP production, glucagon receptor (GCGR) overexpressed CHO-K1 cells or human primary hepatocytes were treated with compounds with a serial dilution. The cells were re-suspended in Hank's Balanced Salt solution (HBSS) contained 0.1% (w/v) bovine serum albumin and 800 nM 3-isobutyl-1-methylxanthine (IBMX) and seeded into low volume, 384 wells white plate. The diluted compounds were then added into the plate for 30 minutes pre-incubation where the final DMSO concentration was 1%. The cells were stimulated with glucagon at the concentration equaled to EC50 (an indicium of the concentration of a drag that gives half-maximal response) for 30 minutes at room temperature. After incubation, lysis buffer contain cAMP antibody and fluorescence acceptor were added into each well for additional 60 minutes incubation. Results were recorded by Molecular Devices SpectraMax Paradigm with the HTRF Detection Cartridges and the IC50 value of each compound in inhibiting the cAMP production was calculated with non-linear regression based on the amount of cAMP production.

A further experiment has as its target GCGR (Homo sapiens, UniProt P47871). Briefly: I125-glucagon binding assay (competition, GCGR membrane fractions). Also noted: expressed in transfected cells; host or cells: CHO-K1. The conditions noted are these: for IC50: competition with I125-glucagon 0.0625 nM, membrane fractions from GCGR overexpressed CHO-K1 cells; for inhibition at 30 µM: compound at 30 μM, read-out: percentage of inhibition (number in parenthesis in IC50 binding column). Here is the method:
I^125-Glucagon Binding Assay
The binding affinity of each compound was evaluated by a competition assay with I^125-glucagon. GCGR membrane fractions were obtained from GCGR overexpressed CHO-K1 cells as a stock of 1 mg/ml concentration. To evaluate the IC50 of compounds binding to GCGR, GCGR membrane fractions were treated with compounds with a serial dilution. The membrane fractions were diluted to 7.5 microgram per well in 70 microliter assay buffer contained 50 mM Tris pH 7.4 and 0.5% (w/v) bovine serum albumin and added into 96 wells plate. The membrane fractions were then mixed with 10 microliter diluted compounds. After 5 minutes pre-incubation, 20 microliter I^125 labeled glucagon (Perkin Elmer) was added into each well at the final concentration of 0.0625 nM. The assay mixtures were incubated at 25° C. for 30 minutes and then transferred onto the Millipore Multiscreen GF/B Plate coated with 0.5% (w/v) Polyethyleneimine. The filter plate was washed with wash buffer contained 50 mM Tris pH 7.4 for 2 times, 300 microliter each time. The residual isotope was detected by Hidex CHAMELEON V micro-beta counter and the IC50 value of each compound binding to GCGR was calculated with non-linear regression.

Chain of GCGR (P47871 26-477, species assumed): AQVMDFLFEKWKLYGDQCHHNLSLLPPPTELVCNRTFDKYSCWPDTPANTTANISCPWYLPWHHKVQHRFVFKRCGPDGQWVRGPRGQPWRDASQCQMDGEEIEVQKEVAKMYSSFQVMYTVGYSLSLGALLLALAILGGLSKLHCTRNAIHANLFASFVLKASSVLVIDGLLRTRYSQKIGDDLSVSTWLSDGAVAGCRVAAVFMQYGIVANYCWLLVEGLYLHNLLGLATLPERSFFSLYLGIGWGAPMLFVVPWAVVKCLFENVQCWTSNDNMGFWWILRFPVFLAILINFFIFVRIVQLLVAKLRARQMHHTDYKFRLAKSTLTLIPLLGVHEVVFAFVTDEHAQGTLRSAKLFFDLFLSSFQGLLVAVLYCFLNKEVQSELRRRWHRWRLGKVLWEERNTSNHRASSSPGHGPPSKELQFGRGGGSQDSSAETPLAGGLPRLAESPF
T1 sequence (P47871 26-477, species assumed): as above

As to `CC(C)[C@H](Nc1ccc(C(=O)NCCC(=O)O)cc1)c1ccc(-c2nnc(C(F)(F)F)o2)cc1` (racemic) [Compound 1-57, (RS)-3-(4-((2-methyl-1-(4-(5-(trifluoromethyl)-1,3,4-oxadiazol-2-yl)phenyl)propyl)amino)benzamido)propanoic acid], the IC50 against glucagon receptor (GCGR) is greater than 30000 nM; on GCGR it was 2500 nM.

Turning to `CC(C)C(Nc1ccc(C(=O)NCCC(=O)O)cc1)c1ccc(-c2nnc(-c3ccccc3)o2)cc1` (stereo not drawn) [Compound 1-1, 3-(4-((2-Methyl-1-(4-(5-phenyl-1,3,4-oxadiazol-2-yl)phenyl)propyl)amino)benzamido)propanoic acid], the figures for the 50% inhibitory concentration (IC50) against glucagon receptor (GCGR) and on GCGR were 4690 nM and 27 nM, respectively.

Regarding `COC(=O)CCNC(=O)c1ccc(NC(c2ccc(-c3nnc(-c4ccccc4)o3)cc2)C(C)C)cc1` (stereo not drawn) [Compound 1-2, Methyl 3-(4-((2-methyl-1-(4-(5-phenyl-1,3,4-oxadiazol-2-yl)phenyl)propyl)amino)benzamido)propanoate], the results for the IC50 against glucagon receptor (GCGR) and at GCGR were 113 nM and 1220 nM, respectively.

In turn, `CCOC(=O)CCNC(=O)c1ccc(NC(c2ccc(-c3nnc(-c4ccccc4)o3)cc2)C(C)C)cc1` (stereo not drawn) [Compound 1-3, Ethyl 3-(4-((2-methyl-1-(4-(5-phenyl-1,3,4-oxadiazol-2-yl)phenyl)propyl)amino)benzamido)propanoate] displayed an IC50 on glucagon receptor (GCGR) of 55 nM. Besides, on GCGR, the IC50 turned out to be 1870 nM and the inhibition at 30 µM is 43%.

With `CC(C)C(Nc1ccc(C(=O)NCCC(=O)O)cc1)c1ccc(-c2nnc(C(F)(F)F)o2)cc1` (stereo not drawn) [Compound 1-4, 3-(4-((2-Methyl-1-(4-(5-(trifluoromethyl)-1,3,4-oxadiazol-2-yl)phenyl)propyl)amino)benzamido)propanoic acid], the values for the IC50 at glucagon receptor (GCGR) and at GCGR were greater than 30000 nM and 433 nM, respectively.

Regarding `CC(C)CC(Nc1ccc(C(=O)NCCC(=O)O)cc1)c1ccc(-c2nnc(-c3ccccc3)o2)cc1` (stereo not drawn) [Compound 1-5, 3-(4-((3-Methyl-1-(4-(5-phenyl-1,3,4-oxadiazol-2-yl)phenyl)butyl)amino)benzamido)propanoic acid], the IC50 came out at 4130 nM against glucagon receptor (GCGR) and 175 nM on GCGR.

Take `CCCC(Nc1ccc(C(=O)NCCC(=O)OCC)cc1)c1ccc(-c2nnc(-c3ccccc3)o2)cc1` (stereo not drawn) [Compound 1-6, Ethyl 3-(4-((1-(4-(5-phenyl-1,3,4-oxadiazol-2-yl)phenyl)butyl)amino)benzamido)propanoate]: the IC50 against glucagon receptor (GCGR) worked out at 31 nM; on GCGR it was 2610 nM.

With `CCCC(Nc1ccc(C(=O)NCCC(=O)O)cc1)c1ccc(-c2nnc(-c3ccccc3)o2)cc1` (stereo not drawn) [Compound 1-7], the values for the IC50 on glucagon receptor (GCGR) and on GCGR were 3330 nM and 211 nM, respectively.

For the compound `CCCC(Nc1ccc(C(=O)NCCC(=O)O)cc1)c1ccc(-c2nnc(C(F)(F)F)o2)cc1` (stereo not drawn) [Compound 1-8, 3-(4-((1-(4-(5-(Trifluoromethyl)-1,3,4-oxadiazol-2-yl)phenyl)butyl)amino)benzamido)propanoic acid], the IC50 on glucagon receptor (GCGR) was greater than 30000 nM; at GCGR, 651 nM.

Turning to `CC(C)CC(Nc1ccc(C(=O)NCCC(=O)O)cc1)c1ccc(-c2nnc(C(F)(F)F)o2)cc1` (stereo not drawn) [Compound 1-9, 3-(4-((3-Methyl-1-(4-(5-(trifluoromethyl)-1,3,4-oxadiazol-2-yl)phenyl)butyl)amino)benzamido)propanoic acid], the IC50 on glucagon receptor (GCGR) stood at 17100 nM; on GCGR, 956 nM.

On to `CCOC(=O)CCNC(=O)c1ccc(NC(c2ccc(-c3nnc(-c4ccccc4)o3)cc2)C(C)CC)cc1` (stereo not drawn) [Compound 1-10, Ethyl 3-(4-((2-methyl-1-(4-(5-phenyl-1,3,4-oxadiazol-2-yl)phenyl)butyl)amino)benzamido)propanoate], for which the IC50 against glucagon receptor (GCGR) was determined as 25 nM; at GCGR, 1870 nM. The inhibition at 30 µM on GCGR came out at 34%.

As to `CCC(C)C(Nc1ccc(C(=O)NCCC(=O)O)cc1)c1ccc(-c2nnc(-c3ccccc3)o2)cc1` (stereo not drawn) [Compound 1-11, 3-(4-((2-Methyl-1-(4-(5-phenyl-1,3,4-oxadiazol-2-yl)phenyl)butyl)amino)benzamido)propanoic acid], the IC50 was 2540 nM against glucagon receptor (GCGR) and 72 nM on GCGR.

Consider `CC(C)CC(Nc1ccc(C(=O)NCCC(=O)O)cc1)c1ccc(-c2nnc(C(C)(C)C)o2)cc1` (stereo not drawn) [Compound 1-12], for which the IC50 at glucagon receptor (GCGR) turned out to be 6710 nM; on GCGR, 455 nM.

As for `CCCCC(Nc1ccc(C(=O)NCCS(=O)(=O)O)cc1)c1ccc(-c2nnc(-c3ccccc3)o2)cc1` (stereo not drawn) [Compound 1-13, 2-(4-((1-(4-(5-phenyl-1,3,4-oxadiazol-2-yl)phenyl)pentyl)amino)benzamido)ethane-1-sulfonic acid], the results for the IC50 at glucagon receptor (GCGR) and on GCGR were greater than 30000 nM and 314 nM, respectively.

For the compound `CCCCC(Nc1ccc(C(=O)NCCC(=O)O)cc1)c1ccc(-c2nnc(C(F)(F)F)o2)cc1` (stereo not drawn) [Compound 1-14, 3-(4-((1-(4-(5-(trifluoromethyl)-1,3,4-oxadiazol-2-yl)phenyl)pentyl)amino)benzamido)propanoic acid], the values for the IC50 against glucagon receptor (GCGR) and on GCGR were 3450 nM and 379 nM, respectively.

With `CCCCC(Nc1ccc(C(=O)NCCC(=O)OCC)cc1)c1ccc(-c2nnc(-c3ccccn3)o2)cc1` (stereo not drawn) [Compound 1-15], the figures for the IC50 at glucagon receptor (GCGR) and on GCGR were 306 nM and 578 nM, respectively.

With `CCCCC(Nc1ccc(C(=O)NCCC(=O)O)cc1)c1ccc(-c2nnc(-c3ccccn3)o2)cc1` (stereo not drawn) [Compound 1-16, 3-(4-((1-(4-(5-(Pyridin-2-yl)-1,3,4-oxadiazol-2-yl)phenyl)pentyl)amino)benzamido)propanoic acid], the values for the IC50 at glucagon receptor (GCGR) and on GCGR were 15700 nM and 203 nM, respectively.

`CCOC(=O)CCNC(=O)c1ccc(NC(c2ccc(-c3nnc(-c4ccc(F)cc4)o3)cc2)C(C)C)cc1` (stereo not drawn) [Compound 1-17] yielded an IC50 against glucagon receptor (GCGR) of 322 nM. Besides, on GCGR, the IC50 is 3510 nM and the inhibition at 30 µM was determined as 53%.

On to `CC(C)C(Nc1ccc(C(=O)NCCC(=O)O)cc1)c1ccc(-c2nnc(-c3ccc(F)cc3)o2)cc1` (stereo not drawn) [Compound 1-18, 3-(4-((1-(4-(5-(4-Fluorophenyl)-1,3,4-oxadiazol-2-yl)phenyl)-2-methylpropyl)amino)benzamido)propanoic acid], for which the IC50 at glucagon receptor (GCGR) was 4350 nM; on GCGR it was 122 nM.

Consider `CCCCC(Nc1ccc(C(=O)NCCC(=O)OCC)cc1)c1ccc(-c2nnc(C(C)(C)C)o2)cc1` (stereo not drawn) [Compound 1-19, Ethyl 3-(4-((1-(4-(5-(tert-butyl)-1,3,4-oxadiazol-2-yl)phenyl)pentyl)amino)benzamido)propanoate], for which the results for the IC50 on glucagon receptor (GCGR) and at GCGR were 203 nM and 4410 nM, respectively.

With `CCCCC(Nc1ccc(C(=O)NCCC(=O)O)cc1)c1ccc(-c2nnc(C(C)(C)C)o2)cc1` (stereo not drawn) [Compound 1-20, 3-(4-((1-(4-(5-(tert-butyl)-1,3,4-oxadiazol-2-yl)phenyl)pentyl)amino)benzamido)propanoic acid], the IC50 turned out to be 15200 nM against glucagon receptor (GCGR) and 562 nM at GCGR.

With `CCOC(=O)CCNC(=O)c1ccc(NC(c2ccc(-c3nnc(C(C)(C)C)o3)cc2)C(C)CC)cc1` (stereo not drawn) [Compound 1-21, Ethyl 3-(4-((1-(4-(5-(tert-butyl)-1,3,4-oxadiazol-2-yl)phenyl)-2-methylbutyl)amino)benzamido)propanoate], the results for the IC50 against glucagon receptor (GCGR) and on GCGR were 126 nM and 3310 nM, respectively.

On GCGR, `CCCC[C@H](Nc1ccc(C(=O)NCCC(=O)O)cc1)c1ccc(-c2noc(-c3ccccc3)n2)cc1` [Compound 2-34, (S)-3-(4-((1-(4-(5-phenyl-1,2,4-oxadiazol-3-yl)phenyl)pentyl)amino)benzamido)propanoic acid] returned an IC50 greater than 30000 nM.
